Experimental data as given in patent US12161763B2, “Formulation and method for increasing oral bioavailability of drugs” (Yissum Research Development Company of the Hebrew …, priority 2012, dated 2024).
Several values for one entry are separate records, joined by “and”; a condition that tells them apart may be missing. Equal entries are not always repeated. Structures can show the parent of a compound that is named as a salt.

Tests used:
[1] = Absorption enhancer pro-nano-liposphere development: dissolution in pre-concentrate and precipitation on dilution with water; assay type: physicochemical; conditions: for precipitation of the absorption enhancer upon dilution with water phase: curcumin 1% and 2%, resveratrol, piperine 2%
Experimental: The development of each of the formulations, in terms of a selection of the different components, was conducted by the following method. A combination of certain components was used as a reference starting point (as per Table 16). The choice of these certain triglyceride, organic amphiphilic co-solvent and the combination of surfactants in the detailed portions in Table 16 was based on the inventors' previous experience with various lipophilic drugs. Thus, an absorption enhancer was added to this specified prototype formulation to form a pre-concentrate.

[2] = Tacrolimus oral bioavailability study; assay type: in vivo, Male Wistar rats
[3] = Compatibility of BCS class II and IV drugs with the piperine-PNL pre-concentrate; assay type: physicochemical
Description: In order to determine the compatibility of the developed PNL delivery system with various lipophilic drugs, we have tested the ability of the piperine-PNL to dissolve various BCS class II and IV drugs.

[4] = Talinolol relative oral bioavailability study; assay type: in vivo; conditions: male, Wistar, rat, plasma; PO 4 mg/kg talinolol, rats
Experimental: The obtained talinolol concentration was 1 mg/mL. […] The control group received 4 mg/kg talinolol dissolved in PEG400:water:ethanol 25:60:15 to obtain 1 mg/mL concentration (n=6).

[5] = test system: CYP3A4; conditions: 120 min incubation in isolated rat microsomes
[6] = CBD nano lipospheres relative oral bioavailability study; assay type: in vivo; conditions: male, Wistar, rat, plasma; PO 15 mg/kg CBD, rats
Experimental: The obtained CBD concentration was 3 mg/mL. […] The control group received (15 mg/kg) CBD solution in propylene glycol/EthOH/water 30/30/40 respectively (1 mg/mL) (n=6).

[7] = CBD relative oral bioavailability: CBD, CBD-PNL and CBD-PNL with absorption enhancers; conditions: male, Wistar, rat, in vivo; PO CBD 15 mg/kg; Piperine 10 mg/kg, rats; mean ± S.E.M.
Experimental: The obtained CBD and piperine concentrations were 3 mg/mL and 2 mg/ml, respectively. […] The control groups received (15 mg/kg) CBD solution in propylene glycol/EthOH/water 30/30/40 respectively (1 mg/mL) (n=6) or CBD-PNL ((15 mg/kg of CBD).

[8] = test system: Male Wistar rats; test: AM pharmacodynamic study: heart rate and IBI by radiotelemetry; assay type: in vivo; conditions: 12.5 mg/kg AM PO
Experimental: The deferential effect of AM on heart rate was used as a pharmacodynamic marker for assessment of AM pharmacological effect following oral administration.
Male Wistar rats (Harlan, Israel) weighing 300-350 g were kept under a 12 h light/dark cycle with free access to water and food (standard rat chow) Animals were anesthetized for the period of surgery by intraperitoneal injection of 1 mL/kg of ketamine-xylazine solution (90/10%, respectively).
An ECG transmitter (TA11CA-F40, Data Sciences International Inc., St. Paul, MN) was implanted subcutaneously over the scapula with the leads in a Lead 2 configuration by tunneling subcutaneously from the dorsal incision using a trocar. The negative lead was placed in the area of the right shoulder and the positive lead was placed immediately to the left of the xyphoid space and caudal to the rib cage.
The signal from the transmitters was received by two RLA 2000 receivers and transmitted via a Data Exchange Matrix to a Dataquest PCI card. The data were recorded continuously during the whole experiment at 1000 Hz rate with no filter cutoff and full scale at 10 mV.
The collected data were interpreted by Dataquest A.R.T program. The IBI (R-R duration, sec) and HR (bpm) were calculated in average values of each 10 min of the recording.
At the beginning the baseline were recorded at least for 120 min. After establishing stable recording the rats were treated by oral gavage. During the treatment the data was collected and afterwards extracted in further analysis.
Two groups of three rats received the treatment in a cross over manner, meaning each rat received each treatment once. The treatments were as follows:
Blank nano-lipospheres not containing AM was freshly prepared as described above and was administered by oral gavage. […] .
In order to inspect separately the effect of each delivery method, we first calculated the mean baseline IBI duration throughout 60 min prior the administration. The drug was administered at t=60 min Post administration the data was calculated throughout 180 min. The net change was calculated as the percentage of the change for each drug administration mode relative to the baseline recording. The changes from base-line in two parameters: IBI and HR were analyzed in two points: 90 min. post administration (mid phase) and 180 min post administration (end phase) (Tables 9A-B and 10A-B, respectively).

[9] = 90 min post administration, HCl
[10] = 180 min post administration, HCl

COc1cc(/C=C/C(=O)CC(=O)/C=C/c2ccc(O)c(OC)c2)ccc1O [curcumin]
precipitation of the absorption enhancer upon dilution with water phase [1]: precipitation

C=CC[C@@H]1/C=C(\C)C[C@H](C)C[C@H](OC)[C@H]2O[C@@](O)(C(=O)C(=O)N3CCCC[C@H]3C(=O)O[C@H](/C(C)=C/[C@@H]3CC[C@@H](O)[C@H](OC)C3)[C@H](C)[C@@H](O)CC1=O)[C@H](C)C[C@@H]2OC [tacrolimus]
Coefficient of variation (% CV) of plasma tacrolimus concentrations ([2]; 0.25 h after PO 1 mg/kg): 95.1%
Coefficient of variation (% CV) of plasma tacrolimus concentrations ([2]; 0.5 h after PO 1 mg/kg): 90.8%
Coefficient of variation (% CV) of plasma tacrolimus concentrations ([2]; 0.75 h after PO 1 mg/kg): 73.2%
Coefficient of variation (% CV) of plasma tacrolimus concentrations ([2]; 1 h after PO 1 mg/kg): 83.5%
Coefficient of variation (% CV) of plasma tacrolimus concentrations ([2]; 2 h after PO 1 mg/kg): 103.5%

C[C@@H]1[C@H](O)[C@@H](C)/C=C/C=C/C=C/C=C/C=C/C=C/C=C/[C@H](O[C@@H]2O[C@H](C)[C@@H](O)[C@H](N)[C@@H]2O)C[C@@H]2O[C@](O)(C[C@@H](O)C[C@@H](O)[C@H](O)CC[C@@H](O)C[C@@H](O)CC(=O)O[C@H]1C)C[C@H](O)[C@H]2C(=O)O [Amphotericin B]
compatibility with the pre-concentrate [3]: incompatible

CC(C)(C)NCC(O)COc1ccc(NC(=O)NC2CCCCC2)cc1 (stereo not drawn) [Talinolol, talinolol]
AUC [4]: 11.9 ng·h/mL
Cmax [4]: 5.55 ± 1.65 ng/mL
half-life [4]: 1.15 ± 0.19 h

C[C@]12CC[C@H]3[C@@H](CCC4=CC(=O)CC[C@@]43C)[C@@H]1CC[C@@H]2O [testosterone]
testosterone remaining [5]: 75.39±8.82%

C=C(C)[C@@H]1CCC(C)=C[C@H]1c1c(O)cc(CCCCC)cc1O [CBD, Cannabidiol]
AUC [6]: 259 ng·h/mL
Cmax [6]: 105 ± 103 ng/mL
AUC [7]: 90 ± 21 ng·h/mL
Cmax [7]: 39 ± 8 ng/mL

CCCCc1oc2ccccc2c1C(=O)c1cc(I)c(OCCN(CC)CC)c(I)c1 [AM, Amiodarone HCl]
HEART RATE (BPM) MID PHASE ([8]; 90 min post administration): 452.916 ± 20.01 BPM
IBI (sec) MID PHASE ([8]; 90 min post administration): 0.1435 ± 0.008 s
HEART RATE CHANGE % (percentage from baseline), mid phase [8, 9]: 131.28% and 131.28 (*) %
IBI CHANGE % (percentage from baseline), mid phase [8, 9]: 88.86% and 88.86 (*) %
IBI (sec) END PHASE ([8]; 180 min post administration): 0.143 ± 0.007 s
HEART RATE (BPM) END PHASE [8, 10]: 443.071 ± 11.06 BPM and 443.07 ± 11.06 BPM
HEART RATE CHANGE % (percentage from baseline), end phase [8, 10]: 128.43% and 128.43 (*) %
IBI CHANGE % (percentage from baseline), end phase [8, 10]: 89.79% and 89.79 (*) %
heart rate following administration ([8]; phase not given): 452.916±20.01 BPM
mean IBI following administration ([8]; phase not given): 0.143 ± 0.0074 s

Oc1ccc(C=Cc2cc(O)cc(O)c2)cc1 [resveratrol]
dissolution of the absorption enhancer in the pre-concentrate / appearance of pre-concentrate [1]: homogeneous and visually clear pre-concentrate
precipitation of the absorption enhancer upon dilution with water phase [1]: No precipitation
